The text below walks through data of patent US9944666B2, “Compounds that are S1P modulating agents and/or ATX modulating agents” (BIOGEN MA INC., priority 2012, dated 2018).

One may read the IC50 as the concentration at which inhibition is half-maximal.

The first test addresses T1, human S1P4 (Homo sapiens, UniProt O95977).
T1 construct: host or cells: recombinant CHEM cells
T1 sequence (O95977 1-384): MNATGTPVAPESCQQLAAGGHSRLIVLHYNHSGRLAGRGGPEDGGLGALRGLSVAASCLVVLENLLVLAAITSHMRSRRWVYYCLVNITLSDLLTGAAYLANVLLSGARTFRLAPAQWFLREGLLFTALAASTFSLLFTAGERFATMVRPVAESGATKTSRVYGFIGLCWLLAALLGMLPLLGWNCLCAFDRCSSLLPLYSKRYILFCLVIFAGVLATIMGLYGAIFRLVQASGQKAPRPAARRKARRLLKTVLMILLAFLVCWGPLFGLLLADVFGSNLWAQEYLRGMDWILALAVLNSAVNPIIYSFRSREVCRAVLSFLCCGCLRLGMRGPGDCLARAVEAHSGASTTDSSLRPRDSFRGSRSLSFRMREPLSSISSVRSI
The test is described as follows: S1P receptor calcium mobilization assay, antagonist format. The test is classed as cell-based. Conditions: recombinant CHEM cells expressing human S1P4; calcium flux, FLIPR; stimulated with EC80 of reference agonist. The method, then: (§1) Compounds that are not specific for a particular S1P receptor can cause undesirable side effects. Accordingly, compounds are tested to identify those that are specific. Accordingly, the test compounds are tested in a calcium mobilization assay/S1P receptor activity assay. The procedure is essentially as described in Davis et al. (2005) Journal of Biological Chemistry, vol. 280, pp. 9833-9841, which is incorporated by reference in its entirety with the following modifications. Calcium mobilization assays are performed in recombinant CHEM cells expressing human S1P1, S1P2, S1P3, S1P4, or S1P5 purchased from Millipore (Billerica, Mass.). To detect free intracellular calcium, S1P1, S1P2, S1P3, S1P4, or S1P5 cells are loaded with FLIPR Calcium 4 dye from Molecular Devices (Sunnyvale, Calif.). Cells are imaged for calcium mobilization using a FLIPR^TERA equipped with a 96-well dispense head.
Agonist percentage activation determinations were obtained by assaying sample compounds and referencing the Emax control for each receptor profiled. Antagonist percentage inhibition determinations were obtained by assaying sample compounds and referencing the control EC80 wells for each receptor profiled.
Sample compounds were plated in an eight-point, four-fold dilution series in duplicate with a top concentration of 10 μM. The concentrations described here reflect the final concentration of the compounds during the antagonist assay. During the agonist assay the compound concentrations were 1.25 fold higher to allow for the final desired concentration to be achieved with further dilution by EC80 of reference agonists during the antagonist assay.
Reference agonists were handled as mentioned above serving as assay control. The reference agonists were handled as described above for Emax.
Assay was read for 180 seconds using the FLIPR^TETRA (This assay run added sample compounds and reference agonist to respective wells). At the completion of the first “Single Addition” assay run, assay plate was removed from the FLIPR^TETRA and placed at 25° C. for seven (7) minutes.
Using the EC80 values determined during the agonist assay, stimulated all pre-incubated sample compound and reference antagonist (if applicable) wells with EC80 of reference agonist. Read for 180 seconds using the FLIPR^TETRA (This assay added reference agonist to respective wells-then fluorescence measurements were collected to calculate percentage inhibition values).
On the technique in general: Calcium flux is commonly read through the fluorescence of an indicator in the cells.
As for `CC(C)[C@H]1CC[C@H](Oc2ccc3cc(CNC45CCC(C(=O)O)(CC4)CC5)ccc3c2)CC1` [Example 4, 4-(((6-((trans-4-isopropylcyclohexyl)oxy)naphthalen-2-yl)methyl)amino)bicyclo[2.2.2]octane-1-carboxylic acid], the IC50 was no more than 250 nM.
Regarding `O=C(O)C12CCC(NCc3ccc4cc(OC5CCC6(CCCCC6)CC5)ccc4c3)(CC1)CC2` [Example 11, 4-(((6-(spiro[5.5]undecan-3-yloxy)naphthalen-2-yl)methyl)amino)bicyclo[2.2.2]octane-1-carboxylic acid], the IC50 was no more than 250 nM.
`CC(C)(C)[C@H]1CC[C@H](Oc2ccc3cc(CN4CCN(c5ncccn5)CC4)ccc3c2)CC1` [Example 44, 2-(4-((6-((trans-4-(tert-butyl)cyclohexyl)oxy)naphthalen-2-yl)methyl)piperazin-1-yl)pyrimidine]: the IC50 is no more than 500 nM.
Consider `CC(C)(C)[C@H]1CC[C@H](Oc2ccc3cc(CN4CCN(c5ccncc5)CC4)ccc3c2)CC1` [Example 46, 1-((6-((trans-4-(tert-butyl)cyclohexyl)oxy)naphthalen-2-yl)methyl)-4-(pyridin-4-yl)piperazine], for which the IC50 is no more than 500 nM.
Same read-out and setting: with `CC(C)(C)[C@H]1CC[C@H](Oc2ccc3cc(CN4CC(C5CCCC(C(=O)O)C5)C4)ccc3c2)CC1` (stereo partly drawn) [Example 58, 3-(1-((6-((trans-4-(tert-butyl)cyclohexyl)oxy)naphthalen-2-yl)methyl)azetidin-3-yl)cyclohexanecarboxylic acid] the figure was no more than 100 nM.
Still for that read-out and setting: with `CC(C)(C)[C@H]1CC[C@H](Oc2ccc3cc(CN4CC5(COC5)C4)ccc3c2)CC1` [Example 67, 6-((6-((trans-4-(tert-butyl)cyclohexyl)oxy)naphthalen-2-yl)methyl)-2-oxa-6-azaspiro[3.3]heptane] the figure was no more than 500 nM.
On the same count and under the same terms, with `CC(C)(C)[C@H]1CC[C@H](Oc2ccc3cc(CN4CC5CC(C4)C5C(=O)O)ccc3c2)CC1` (stereo partly drawn) [Example 74, 3-((6-((trans-4-(tert-butyl)cyclohexyl)oxy)naphthalen-2-yl)methyl)-3-azabicyclo[3.1.1]heptane-6-carboxylic acid] the figure was no more than 100 nM.
With `CC(C)(C)[C@H]1CC[C@H](Oc2ccc3cc(CNC45CCC(C(=O)O)(CC4)C(O)C5)ccc3c2)CC1` (stereo partly drawn) [Example 80, 4-((6-(trans-4-tert-Butylcyclohexyloxy)naphthalen-2-yl)methylamino)-2-hydroxybicyclo[2.2.2]octane-1-carboxylic acid], the IC50 was no more than 250 nM.

The next test deals with T1, human S1P4. The test is described as follows: S1P receptor calcium mobilization assay, agonist format. It counts as cell-based. Conditions: recombinant CHEM cells expressing human S1P4, calcium flux, FLIPR. The method, then: as §1
Agonist percentage activation determinations were obtained by assaying sample compounds and referencing the Emax control for each receptor profiled. Antagonist percentage inhibition determinations were obtained by assaying sample compounds and referencing the control EC80 wells for each receptor profiled. […]
Assay was read for 180 seconds using the FLIPR^TETRA (This assay run added sample compounds and reference agonist to respective wells). […]
For the molecule `CC1(C)CCC(Oc2ccc3cc(CN4CC(C5CCCC(C(=O)O)C5)C4)ccc3c2)CC1` (stereo not shown) [Example 62, 3-(1-((6-((4,4-dimethylcyclohexyl)oxy)naphthalen-2-yl)methyl)azetidin-3-yl)cyclohexanecarboxylic acid], the IC50 was no more than 500 nM.

For a further test, the target named is T2, Human ATX protein (Homo sapiens, UniProt Q13822).
T2 construct: made in house
The test is described as follows: ATX biochemical FRET assay with FS-3 substrate. Conditions: FS-3 2 μM, ATX 1.0 μg/mL, room temperature 2 hours, fluorescence 485/538 nm. A digest of the protocol:
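Purified human ATX (1.0 μg/mL final) preincubated with compound 30 min at room temperature in Tris pH 7.4 buffer with NaCl, KCl, CaCl2, MgCl2 and 1 mg/mL fatty acid-free BSA. FS-3 added to 2 μM final; 2 h at room temperature in the dark, fluorescence at ex 485/em 538 nm.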
`CCC1CCC(Oc2ccc3cc(C(CC)N4C5CCCC4CC(C(=O)O)C5)ccc3c2C(F)(F)F)CC1` [Example 297, 9-((R)-1-(6-(((1s,4S)-4-ethylcyclohexyl)oxy)-5-(trifluoromethyl)naphthalen-2-yl)propyl)-9-azabicyclo[3.3.1]nonane-3-carboxylic acid] yielded an IC50 of no more than 250 nM.
